We go through 50 compounds from patent US11053219B2, “Substituted pyridines as TYK2 inhibitors” (FronThera U.S. Pharmaceuticals LLC, priority 2018, dated 2021).

For orientation: Kd means the equilibrium constant for the complex coming apart. Read a low Kd as tighter binding. In general, IC50 refers to the concentration that inhibits the measured activity by half.

The target in one test is TYK2 (JH2 domain) (Homo sapiens (Human), UniProt P29597). Put plainly: TYK2 JH2 domain binding assay (DiscoverX KINOMEscan). The note with it: 11-point 3-fold dilution, duplicate.
In test [1] the test system is IL12-induced p-STAT4 in human PBMC. Put plainly: IL-12 induced pSTAT4 in human PBMC. The note with it: read-out: p-STAT4 IC50. The format is cell-based.
Description: Cells were seeded in a round bottom 96-well plate at the concentration of 200,000 cells/well. A 10-point dilution series of test compound (top dose 10 uM, 1:5 dilution) was added to the well using the liquid dispenser (Tecan D300e) and incubated for 1 hour at 37 C. Then human IL-12 recombinant protein (R&D Systems) was added to the well at the final concentration of 10 ng/ml and incubated for 15 minutes at 37 C. Cell lysates were prepared and analyzed by Phospho STAT4 (Tyr693) Kit (Meso Scale Discovery) following manufacturer's protocol.
For calculation of the inhibition rate, the relative pSTAT4 signal of each well=pSTAT4 signal of each well−the average pSTAT4 signal of baseline. The inhibition %=(the average pSTAT4 signal of IL-12 treatment wells−the relative of pSTAT4 signal in each compound containing well)/the average pSTAT4 signal of IL-12 treatment wells*100%
(§1) The curve was plotted as the inhibition % (y-axis) vs. compounds concentration (x-axis) and was fitted with log(inhibitor) vs. normalized response—Variable slope by GraphPad Prism7.0.
Test [2] concerns INFα induced pSTAT5 in human PBMC. Kind of test: INFα induced pSTAT5 in human PBMC. The format is cell-based. The note with it: human PBMC, INFα 5000 units/ml; read-out: p-STAT5 IC50.
Description: Cells were seeded in a round bottom 96-well plate at the concentration of 200,000 cells/well. A 10-point dilution series of test compound (top dose 10 uM, 1:5 dilution) was added to the well using the liquid dispenser (Tecan D300e) and incubated for 1 hour at 37 C. Then human INFα recombinant protein (R&D Systems) was added to the well at the final concentration of 5000 units/ml and incubated for 15 minutes at 37 C. Cell lysates were prepared and analyzed by Phospho STAT3 (Tyr705) cellular kit (Cisbio) or Phospho STAT5 (Tyr693) Kit (Meso Scale Discovery) following manufacturer's protocol.
For calculation of the inhibition rate, the relative pSTAT signal of each well=pSTAT signal of each well−the average pSTAT signal of baseline. The inhibition %=(the average pSTAT signal of INFα treatment wells−the relative of pSTAT signal in each compound containing well)/the average pSTAT signal of INFα treatment wells*100%
as §1

Read-outs that look alike come from different tables or passages of the source.

TYK2 (JH2 domain), sequence (P29597 589-875): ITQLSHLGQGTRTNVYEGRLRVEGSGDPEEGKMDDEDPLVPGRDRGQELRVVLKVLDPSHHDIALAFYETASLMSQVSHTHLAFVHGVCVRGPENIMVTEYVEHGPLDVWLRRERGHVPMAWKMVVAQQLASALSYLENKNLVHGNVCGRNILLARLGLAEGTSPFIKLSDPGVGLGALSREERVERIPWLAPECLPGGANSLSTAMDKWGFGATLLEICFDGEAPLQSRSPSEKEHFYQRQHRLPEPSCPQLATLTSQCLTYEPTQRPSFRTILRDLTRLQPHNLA
Description for TYK2 (JH2 domain): The assay is performed by combining three components: DNA-tagged kinase; immobilized ligand; and a test compound. The ability of the test compound to compete with the immobilized ligand is measured via quantitative PCR of the DNA tag.
The liganded beads were blocked with excess biotin and washed with blocking buffer (SeaBlock (Pierce), 1% BSA, 0.05% Tween 20, 1 mM DTT) to remove unbound ligand and to reduce non-specific binding. […] Test compounds were prepared as 111× stocks in 100% DMSO. All test compounds were shipped to DiscoverX in DMSO with concentration of 10 mM. Kds were determined using an 11-point 3-fold compound dilution series with three DMSO control points. Each compound was tested in duplicate. […] The compounds were then diluted directly into the assays such that the final concentration of DMSO was 0.9%. All reactions performed in polypropylene 384-well plate. Each was a final volume of 0.02 ml. […] The kinase concentration in the eluates was measured by qPCR.
The amount of kinase measured by qPCR (Signal; y-axis) is plotted against the corresponding compound concentration in nM in log 10 scale (x-axis). Binding constants (Kds) were calculated with a standard dose-response curve using the Hill equation:
The Hill Slope was set to −1.
Curves were fitted using anon-linear least square fit with the Levenberg-Marquardt algorithm.

The compound `[2H]C([2H])([2H])NC(=O)c1nnc(N2CCN(CC(C)C)C2=O)cc1Nc1cccc(-c2ncn(C)n2)c1OC` [Example 17, 6-(3-isobutyl-2-oxo-imidazolidin-1-yl)-4-[2-methoxy-3-(1-methyl-1,2,4-triazol-3-yl)anilino]-N-(trideuteriomethyl)pyridazine-3-carboxamide] returned a Kd on TYK2 (JH2 domain) not above 1 nM. In addition, in test [1] (human PBMC, IL-12 10 ng/ml), the IC50 was less than 100 nM.
Regarding `[2H]C([2H])([2H])NC(=O)c1nnc(N2CCN(C3CCCC3)C2=O)cc1Nc1cccc(-c2ncn(C)n2)c1OC` [Example 18, 6-(3-cyclopentyl-2-oxo-imidazolidin-1-yl)-4-[2-methoxy-3-(1-methyl-1,2,4-triazol-3-yl)anilino]-N-(trideuteriomethyl)pyridazine-3-carboxamide], at TYK2 (JH2 domain), the Kd is not above 1 nM. For the same compound, the IC50 in test [1] (human PBMC, IL-12 10 ng/ml) was less than 100 nM.
The compound `[2H]C([2H])([2H])NC(=O)c1nnc(N2CCN(C34CC(C3)C4)C2=O)cc1Nc1cccc(-c2ncn(C)n2)c1OC` [Example 19, 6-[3-(3-bicyclo[1.1.1]pentanyl)-2-oxo-imidazolidin-1-yl]-4-[2-methoxy-3-(1-methyl-1,2,4-triazol-3-yl)anilino]-N-(trideuteriomethyl)pyridazine-3-carboxamide] gave an equilibrium dissociation constant (Kd) on TYK2 (JH2 domain) not above 1 nM. In addition, the IC50 in test [1] (human PBMC, IL-12 10 ng/ml) was less than 100 nM.
For `[2H]C([2H])([2H])NC(=O)c1nnc(N2CCN(C3CCC3)C2=O)cc1Nc1cccc(-c2ncn(C)n2)c1OC([2H])([2H])[2H]` [Example 20, 6-(3-cyclobutyl-2-oxo-imidazolidin-1-yl)-4-[3-(1-methyl-1,2,4-triazol-3-yl)-2-(trideuteriomethoxy)anilino]-N-(trideuteriomethyl)pyridazine-3-carboxamide], in that order: not above 1 nM and less than 100 nM.
At TYK2 (JH2 domain), `[2H]C([2H])([2H])NC(=O)c1nnc(N2CCN(C(C([2H])([2H])[2H])C([2H])([2H])[2H])C2=O)cc1Nc1cccc(-c2ncn(C([2H])([2H])[2H])n2)c1OC` [Example 21, 6-(3-isopropyl-2-oxo-imidazolidin-1-yl)-4-[2-methoxy-3-(1-methyl-1,2,4-triazol-3-yl)anilino]-N-(trideuteriomethyl)pyridazine-3-carboxamide] returned a Kd not above 1 nM. Besides, in test [1] (human PBMC, IL-12 10 ng/ml), the IC50 is less than 100 nM.
On TYK2 (JH2 domain), `[2H]C([2H])([2H])NC(=O)c1nnc(NC(=O)N2CCC2)cc1Nc1cccc(-c2ncn(C)n2)c1OC` [Example 28] returned a Kd not above 1 nM. Further, the IC50 in test [2] was less than 100 nM.
In the case of `[2H]C1([2H])CN(C(=O)Nc2cc(Nc3cccc(-c4ncn(C)n4)c3OC)c(C(=O)NC([2H])([2H])[2H])nn2)C1` [Example 31], the IC50 in test [1] (human PBMC, IL-12 10 ng/ml) was less than 100 nM.
As for `[2H]C([2H])([2H])Oc1c(Nc2cc(NC(=O)C3CC3)ncc2C(=O)C2CC2)cccc1-c1ncn(C)n1` [Example 34], the IC50 in test [1] (Homo sapiens, PBMC) is less than 100 nM.
With `COc1c(Nc2cc(Nc3cc(F)ccn3)ncc2C(=O)C2CC2)cccc1-c1ncn(C)n1` [Example 108], the Kd at TYK2 (JH2 domain) was not above 1 nM. Also, the IC50 in test [2] was less than 100 nM.
As for `CC(C)(O)c1ccc(Nc2cc(Nc3ncccc3S(C)(=O)=O)c(C(=O)C3CC3)cn2)nc1` [Example 126], the Kd on TYK2 (JH2 domain) was not above 1 nM. Further, the IC50 in test [2] was less than 100 nM.
Take `COc1c(Nc2cc(Nc3ccc(C#N)cn3)ncc2C(=O)C2CC2)cccc1-c1ncn(C)n1` [Example 139]: the IC50 in test [2] was less than 100 nM.
For `COc1c(Nc2cc(Nc3cccc(C#N)n3)ncc2C(=O)C2CC2)cccc1-c1ncn(C)n1` [Example 140], the IC50 in test [2] was less than 100 nM.
On to `COc1c(-c2ncn(C)n2)ccnc1Nc1cc(Nc2ccccn2)ncc1C(=O)C1CC1` [Example 141], for which the IC50 in test [2] is less than 100 nM.
Same read-out and setting: as for `[2H]C([2H])([2H])NC(=O)c1nnc(NC(=O)N2CC(C)(F)C2)cc1Nc1cccc(-c2ncn(C)n2)c1OC` [Example 142], the figure is less than 100 nM; as for `COc1c(Nc2cc(Nc3ccnc(C#N)n3)ncc2C(=O)C2CC2)cccc1-c1ncn(C)n1` [Example 143], less than 100 nM.
As for `[2H]C([2H])([2H])NC(=O)c1nnc(NC(=O)N2CC(C#N)C2)cc1Nc1cccc(-c2ncn(C)n2)c1OC` [Example 144], in test [2], the IC50 was less than 100 nM.
The compound `COc1c(Nc2cc(Nc3cc(C)c(F)cn3)ncc2C(=O)C2CC2)cccc1-c1ncn(C)n1` [Example 145] returned a Kd on TYK2 (JH2 domain) not above 1 nM. Also, the IC50 in test [2] was less than 100 nM.
In the case of `[2H]C([2H])([2H])NC(=O)c1cnc(NC(=O)N2CC(C)(C)C2)cc1Nc1cccc(-c2ncn(C)n2)c1OC` [Example 148], the half-inhibitory concentration (IC50) in test [2] is less than 100 nM.
Same read-out and setting: the same measure for `COc1c(Nc2cc(Nc3ccc(N4CCOCC4=O)cn3)ncc2C(=O)C2CC2)cccc1-c1ncn(C)n1` [Example 149]: less than 100 nM.
Same read-out and setting: as for `[2H]C([2H])([2H])NC(=O)c1nnc(NC(=O)N2CC3(CC3)C2)cc1Nc1cccc(-c2ncn(C)n2)c1OC` [Example 150], the figure is less than 100 nM; as for `[2H]C([2H])([2H])NC(=O)c1nnc(NC(=O)N2CC(F)(C#N)C2)cc1Nc1cccc(-c2ncn(C)n2)c1OC` [Example 151], less than 100 nM; as for `COc1c(Nc2cc(Nc3cnc(C)cn3)ncc2C(=O)C2CC2)cccc1-c1ncn(C)n1` [Example 152], less than 100 nM.
Same read-out and setting: as for `COc1c(Nc2cc(Nc3ccnc(C)n3)ncc2C(=O)C2CC2)cccc1-c1ncn(C)n1` [Example 153], the figure is less than 100 nM.
On to `COc1c(Nc2cc(Nc3cc(C)ncn3)ncc2C(=O)C2CC2)cccc1-c1ncn(C)n1` [Example 154], for which the IC50 in test [2] is less than 100 nM.
Same read-out and setting: as for `COc1c(-c2ncn(C)n2)ccnc1Nc1cc(Nc2ccc(C)nn2)ncc1C(=O)C1CC1` [Example 155], the figure is less than 100 nM.
As for `[2H]C([2H])([2H])NC(=O)c1nnc(NC(=O)N2CC(C)(C)C2)cc1Nc1cccc(-c2ncn(C([2H])([2H])[2H])n2)c1OC` [Example 156], the IC50 in test [2] is less than 100 nM.
In the case of `[2H]C([2H])([2H])NC(=O)c1nnc(NC(=O)N2CC(C(F)F)C2)cc1Nc1cccc(-c2ncn(C)n2)c1OC` [Example 157], the IC50 in test [2] was less than 100 nM.
`[2H]C([2H])([2H])NC(=O)c1nnc(NC(=O)N2CC(OC)C2)cc1Nc1cccc(-c2ncn(C)n2)c1OC` [Example 158]: in test [2], the IC50 is less than 100 nM.
In the case of `[2H]C([2H])([2H])NC(=O)c1nnc(N2CCN(C(C)C)C2=O)cc1Nc1nccc(-c2ncn(C([2H])([2H])[2H])n2)c1OC` [Example 160, 6-(3-isopropyl-2-oxo-imidazolidin-1-yl)-4-[[3-methoxy-4-[1-(trideuteriomethyl)-1,2,4-triazol-3-yl]-2-pyridyl]amino]-N-(trideuteriomethyl)pyridazine-3-carboxamide], the IC50 in test [2] was less than 100 nM.
On to `COc1c(Nc2cc(NC(=O)[C@@H]3C[C@@H]3F)ncc2C(=O)C2CC2)cccc1-c1ncn(C)n1` [Example 161], for which, in test [2], the IC50 is less than 100 nM.
As for `[2H]C([2H])([2H])NC(=O)c1nnc(NC(=O)N2CCC2C)cc1Nc1cccc(-c2ncn(C)n2)c1OC` (centres unmarked) [Example 164, 4-((2-methoxy-3-(1-methyl-1H-1,2,4-triazol-3-yl)phenyl)amino)-N-(methyl-d3)-6-(2-methylazetidine-1-carboxamido)pyridazine-3-carboxamide], the IC50 in test [2] is less than 100 nM.
Same read-out and setting: as for `[2H]C([2H])([2H])NC(=O)c1nnc(NC(=O)N2CC(C)(O)C2)cc1Nc1cccc(-c2ncn(C)n2)c1OC` [Example 165], the figure is 100 to 1000 nM; as for `[2H]C([2H])([2H])NC(=O)c1nnc(NC(=O)N2CC(CO)C2)cc1Nc1cccc(-c2ncn(C)n2)c1OC` [Example 169], less than 100 nM; as for `[2H]C([2H])([2H])CC(=O)c1cnc(NC(=O)C2CC2)cc1Nc1cccc(-c2ncn(C)n2)c1OC` [Example 171], less than 100 nM.
Still for that read-out and setting: as for `[2H]C([2H])([2H])CC(=O)c1cnc(Nc2ccc(C(C)(C)O)cn2)cc1Nc1ncccc1S(C)(=O)=O` [Example 172], the figure is less than 100 nM.
Turning to `COc1c(Nc2cc(Nc3ncc[nH]3)ncc2C(=O)C2CC2)cccc1-c1ncn(C)n1` [Example 173], the IC50 in test [2] lay within 100 to 1000 nM.
For `CCC(=O)c1cnc(Nc2ccc(C(C)(C)O)c(F)n2)cc1Nc1ncccc1S(C)(=O)=O` [Example 174], the IC50 in test [2] is less than 100 nM.
For `CCC(=O)c1cnc(Nc2cccc(C#N)n2)cc1Nc1nccc(-c2ncn(C)n2)c1OC` [Example 175], the IC50 in test [2] was less than 100 nM.
Consider `CCC(=O)c1cnc(Nc2cccc(C#N)n2)cc1Nc1ncccc1S(C)(=O)=O` [Example 176], for which, in test [2], the IC50 is less than 100 nM.
The same measure, in the same setting: the same measure for `CCC(=O)c1cnc(Nc2cccc(C#N)n2)cc1Nc1cccc(-c2ncn(C)n2)c1OC` [Example 177]: less than 100 nM; for `CCC(=O)c1cnc(Nc2cc(C)n(C)n2)cc1Nc1cccc(-c2ncn(C)n2)c1OC` [Example 178]: less than 100 nM; for `CCC(=O)c1cnc(Nc2cc(C)n(C)n2)cc1Nc1ncccc1S(C)(=O)=O` [Example 179]: less than 100 nM.
The same measure, in the same setting: as for `CCC(=O)c1cnc(Nc2cc(C)n(C)n2)cc1Nc1nccc(-c2ncn(C)n2)c1OC` [Example 180], the figure is less than 100 nM; as for `[2H]C([2H])([2H])CC(=O)c1cnc(Nc2ccc(C(C)(C)O)c(F)n2)cc1Nc1ncccc1S(C)(=O)=O` [Example 184], less than 100 nM.
With `[2H]C([2H])([2H])CC(=O)c1cnc(Nc2ccc(C(C)(C)O)c(F)n2)cc1Nc1nccc(-c2ncn(C)n2)c1OC` [Example 185], the IC50 in test [2] was less than 100 nM.
`[2H]C([2H])([2H])n1cnc(-c2cccc(Nc3cc(NC(=O)C4CC4)ncc3C(=O)CC)c2OC)n1` [Example 189]: in test [2], the IC50 is less than 100 nM.
Regarding `[2H]C([2H])([2H])CC(=O)c1cnc(Nc2ccc(C)nn2)cc1Nc1ncccc1S(C)(=O)=O` [Example 190], the IC50 in test [2] was less than 100 nM.
Take `[2H]C([2H])([2H])CC(=O)c1cnc(Nc2cc(C)nc(C)n2)cc1Nc1ncccc1S(C)(=O)=O` [Example 191]: the IC50 in test [2] is less than 100 nM.
`[2H]C([2H])([2H])CC(=O)c1cnc(NC(=O)C2CC2)cc1Nc1nccc(-c2ncn(C)n2)c1OC` [Example 193]: the IC50 in test [2] was less than 100 nM.
Same read-out and setting: the same measure for `COc1c(Nc2cc(Nc3nc(C)c[nH]3)ncc2C(=O)C2CC2)cccc1-c1ncn(C)n1` [Example 196]: 100 to 1000 nM.
